This is an account of results in patent publication US20190167568A1, “Transdermal Drug Delivery System and Method for Using Same” (SENJU USA, INC., priority 2016, published 2019).

For the data set the following is noted: pH 8. From the text: In the present invention, the distribution coefficient (octanol/water distribution coefficient) may be adopted as the index of “water soluble” and “liposoluble” in the “water soluble steroid” and the “liposoluble steroid.” The distribution coefficient can be expressed in log D in consideration of the influence of pH, and water solubility is indicated by a minus value while liposolubility is indicated by a plus value.
The distribution coefficient can be obtained according to the method of JIS […] or JIS […].

With dexamethasone metasulfobenzoate sodium, the “distribution coefficient (log D)” value is on record as −2.
As to prednisolone sodium phosphate, the “distribution coefficient (log D)” value is 0.
